From patent US9174994B2, “Enhanced treatment regimens using mTor inhibitors” (INTELLIKINE LLC, priority 2011, dated 2015)

Experiment: Phase I clinical trial: treatment-emergent adverse events (patients, n (%)), dose limiting toxicity, MTD
Type: in vivo
Experimental: Safety, maximum tolerated dose (MTD), pharmacokinetics (PK) and preliminary antitumor activity were evaluated.
Pharmacodynamic (PD) endpoints were evaluated in surrogate (peripheral blood cells [PBCs], skin) and tumor tissues for the phosphorylation of TORC1-dependent markers (4EBP1/S6), and TORC2-dependent markers (AKT/PRAS40).

CC(C)n1nc(-c2ccc3oc(N)nc3c2)c2c(N)ncnc21 [compound A]
15 (60%): Patients Reporting at Least One Grade 3 or Greater TEAE (QD Dosing (N = 25))
7 (28%): Grade 3 or greater TEAE: Rash (QD Dosing (N = 25))
1 (7%): Grade 3 or greater TEAE: Asthenia (QDx3d QW (N = 14)) | Grade 3 or greater TEAE: Diarrhoea (QDx3d QW (N = 14)) | Grade 3 or greater TEAE: Disease progression (QDx3d QW (N = 14)) | Grade 3 or greater TEAE: Gamma-glutamyltransferase increased (QDx3d QW (N = 14)) | Grade 3 or greater TEAE: Gastroenteritis (QDx3d QW (N = 14)) | Grade 3 or greater TEAE: Hyperglycaemia (QDx3d QW (N = 14)) | Grade 3 or greater TEAE: Lymphopenia (QDx3d QW (N = 14)) | Grade 3 or greater TEAE: Rash macular (QDx3d QW (N = 14)) | Grade 3 or greater TEAE: Urinary tract infection (QDx3d QW (N = 14)) | Grade 3 or greater TEAE: Aspartate aminotransferase increased (QW Dosing (N = 15)) | Grade 3 or greater TEAE: Diarrhoea (QW Dosing (N = 15)) | Grade 3 or greater TEAE: Gamma-glutamyltransferase increased (QW Dosing (N = 15)) | Grade 3 or greater TEAE: Lymphopenia (QW Dosing (N = 15))
7 (50%): Patients Reporting at Least One Grade 3 or Greater TEAE (QDx3d QW (N = 14))
3 (20%): Patients Reporting at Least One Grade 3 or Greater TEAE (QW Dosing (N = 15))
4 (16%): Grade 3 or greater TEAE: Hyperglycaemia (QD Dosing (N = 25))
1 (4%): Grade 3 or greater TEAE: Abdominal pain upper (QD Dosing (N = 25)) | Grade 3 or greater TEAE: Anaemia (QD Dosing (N = 25)) | Grade 3 or greater TEAE: Catheter related infection (QD Dosing (N = 25)) | Grade 3 or greater TEAE: Cellulitis (QD Dosing (N = 25)) | Grade 3 or greater TEAE: Diarrhoea (QD Dosing (N = 25)) | Grade 3 or greater TEAE: Enterocutaneous fistula (QD Dosing (N = 25)) | Grade 3 or greater TEAE: Pancreatitis acute (QD Dosing (N = 25)) | Grade 3 or greater TEAE: Pleural effusion (QD Dosing (N = 25)) | Grade 3 or greater TEAE: Somnolence (QD Dosing (N = 25))
2 (8%): Grade 3 or greater TEAE: Hypokalaemia (QD Dosing (N = 25)) | Grade 3 or greater TEAE: Hyponatraemia (QD Dosing (N = 25)) | Grade 3 or greater TEAE: Lymphopenia (QD Dosing (N = 25)) | Grade 3 or greater TEAE: Pruritus (QD Dosing (N = 25)) | Grade 3 or greater TEAE: Thrombocytopenia (QD Dosing (N = 25))
1 (2%): Catheter site inflammation (Table 8: Total (N = 60)) | Catheter site pain (Table 8: Total (N = 60)) | Coagulopathy (Table 8: Total (N = 60)) | Confusional state (Table 8: Total (N = 60)) | Cough (Table 8: Total (N = 60)) | DIARRHEA (Table 8: Total (N = 60)) | Dizziness (Table 8: Total (N = 60)) | Dyspnoea exertional (Table 8: Total (N = 60))
reversible: adverse events (AEs) reported: reversibility (3 intermittent dosing regimens)
6%: lymphopenia, only reported Grade 3 or higher AE possibly related (3 regimens)
Grade (G) 3 asthenia and G3 mucositis: Dose limiting toxicities (40 mg QW, 20 mg QDx3d QW and 13 mg QDxSd QW cohorts)
0 (0%): Grade 3 or greater TEAE: Aspartate aminotransferase increased (QD Dosing (N = 25)) | Grade 3 or greater TEAE: Asthenia (QD Dosing (N = 25)) | Grade 3 or greater TEAE: Disease progression (QD Dosing (N = 25)) | Grade 3 or greater TEAE: Gamma-glutamyltransferase increased (QD Dosing (N = 25)) | Grade 3 or greater TEAE: Gastroenteritis (QD Dosing (N = 25)) | Grade 3 or greater TEAE: Rash macular (QD Dosing (N = 25)) | Grade 3 or greater TEAE: Urinary tract infection (QD Dosing (N = 25)) | Grade 3 or greater TEAE: Abdominal pain upper (QDx3d QW (N = 14)) | Grade 3 or greater TEAE: Anaemia (QDx3d QW (N = 14)) | Grade 3 or greater TEAE: Aspartate aminotransferase increased (QDx3d QW (N = 14)) | Grade 3 or greater TEAE: Catheter related infection (QDx3d QW (N = 14)) | Grade 3 or greater TEAE: Cellulitis (QDx3d QW (N = 14)) | Grade 3 or greater TEAE: Enterocutaneous fistula (QDx3d QW (N = 14)) | Grade 3 or greater TEAE: Hypokalaemia (QDx3d QW (N = 14)) | Grade 3 or greater TEAE: Hyponatraemia (QDx3d QW (N = 14)) | Grade 3 or greater TEAE: Pancreatitis acute (QDx3d QW (N = 14)) | Grade 3 or greater TEAE: Pleural effusion (QDx3d QW (N = 14)) | Grade 3 or greater TEAE: Pruritus (QDx3d QW (N = 14)) | Grade 3 or greater TEAE: Rash (QDx3d QW (N = 14)) | Grade 3 or greater TEAE: Somnolence (QDx3d QW (N = 14)) | Grade 3 or greater TEAE: Thrombocytopenia (QDx3d QW (N = 14)) | Grade 3 or greater TEAE: Abdominal pain upper (QDx5d QW (N = 6)) | Grade 3 or greater TEAE: Anaemia (QDx5d QW (N = 6)) | Grade 3 or greater TEAE: Aspartate aminotransferase increased (QDx5d QW (N = 6)) | Grade 3 or greater TEAE: Asthenia (QDx5d QW (N = 6)) | Grade 3 or greater TEAE: Catheter related infection (QDx5d QW (N = 6)) | Grade 3 or greater TEAE: Cellulitis (QDx5d QW (N = 6)) | Grade 3 or greater TEAE: Diarrhoea (QDx5d QW (N = 6)) | Grade 3 or greater TEAE: Disease progression (QDx5d QW (N = 6)) | Grade 3 or greater TEAE: Enterocutaneous fistula (QDx5d QW (N = 6)) | Grade 3 or greater TEAE: Gamma-glutamyltransferase increased (QDx5d QW (N = 6)) | Grade 3 or greater TEAE: Gastroenteritis (QDx5d QW (N = 6)) | Grade 3 or greater TEAE: Hyperglycaemia (QDx5d QW (N = 6)) | Grade 3 or greater TEAE: Hypokalaemia (QDx5d QW (N = 6)) | Grade 3 or greater TEAE: Hyponatraemia (QDx5d QW (N = 6)) | Grade 3 or greater TEAE: Lymphopenia (QDx5d QW (N = 6)) | Grade 3 or greater TEAE: Pancreatitis acute (QDx5d QW (N = 6)) | Grade 3 or greater TEAE: Pleural effusion (QDx5d QW (N = 6)) | Grade 3 or greater TEAE: Pruritus (QDx5d QW (N = 6)) | Grade 3 or greater TEAE: Rash (QDx5d QW (N = 6)) | Grade 3 or greater TEAE: Rash macular (QDx5d QW (N = 6)) | Grade 3 or greater TEAE: Somnolence (QDx5d QW (N = 6)) | Grade 3 or greater TEAE: Thrombocytopenia (QDx5d QW (N = 6)) | Grade 3 or greater TEAE: Urinary tract infection (QDx5d QW (N = 6)) | Patients Reporting at Least One Grade 3 or Greater TEAE (QDx5d QW (N = 6)) | Grade 3 or greater TEAE: Abdominal pain upper (QW Dosing (N = 15)) | Grade 3 or greater TEAE: Anaemia (QW Dosing (N = 15)) | Grade 3 or greater TEAE: Asthenia (QW Dosing (N = 15)) | Grade 3 or greater TEAE: Catheter related infection (QW Dosing (N = 15)) | Grade 3 or greater TEAE: Cellulitis (QW Dosing (N = 15)) | Grade 3 or greater TEAE: Disease progression (QW Dosing (N = 15)) | Grade 3 or greater TEAE: Enterocutaneous fistula (QW Dosing (N = 15)) | Grade 3 or greater TEAE: Gastroenteritis (QW Dosing (N = 15)) | Grade 3 or greater TEAE: Hyperglycaemia (QW Dosing (N = 15)) | Grade 3 or greater TEAE: Hypokalaemia (QW Dosing (N = 15)) | Grade 3 or greater TEAE: Hyponatraemia (QW Dosing (N = 15)) | Grade 3 or greater TEAE: Pancreatitis acute (QW Dosing (N = 15)) | Grade 3 or greater TEAE: Pleural effusion (QW Dosing (N = 15)) | Grade 3 or greater TEAE: Pruritus (QW Dosing (N = 15)) | Grade 3 or greater TEAE: Rash (QW Dosing (N = 15)) | Grade 3 or greater TEAE: Rash macular (QW Dosing (N = 15)) | Grade 3 or greater TEAE: Somnolence (QW Dosing (N = 15)) | Grade 3 or greater TEAE: Thrombocytopenia (QW Dosing (N = 15)) | Grade 3 or greater TEAE: Urinary tract infection (QW Dosing (N = 15))
